A value given as a limit tells only on which side of the number the result lay.

The target in one experiment is human LPA1 (Homo sapiens, UniProt Q92633). Briefly: In vitro functional assay of lysophosphatidic acid receptor 1 activity (calcium flux). The experiment is classed as cell-based. The following applies: B103 cells stably expressing human LPA1; Fluo-4 NW calcium flux after lysophosphatidic acid (18:1) at EC80; compounds 100 pM to 10 μM; read-out: LPA1 IC50. In short, it runs like this: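 B103 cells stably expressing human LPA1 plated onto compound for 24 h at 37 °C, loaded with Fluo-4 NW dye, re-exposed to compound (30 min 37 °C plus 30 min room temp).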
Sequence of human LPA1 (Q92633 whole entry): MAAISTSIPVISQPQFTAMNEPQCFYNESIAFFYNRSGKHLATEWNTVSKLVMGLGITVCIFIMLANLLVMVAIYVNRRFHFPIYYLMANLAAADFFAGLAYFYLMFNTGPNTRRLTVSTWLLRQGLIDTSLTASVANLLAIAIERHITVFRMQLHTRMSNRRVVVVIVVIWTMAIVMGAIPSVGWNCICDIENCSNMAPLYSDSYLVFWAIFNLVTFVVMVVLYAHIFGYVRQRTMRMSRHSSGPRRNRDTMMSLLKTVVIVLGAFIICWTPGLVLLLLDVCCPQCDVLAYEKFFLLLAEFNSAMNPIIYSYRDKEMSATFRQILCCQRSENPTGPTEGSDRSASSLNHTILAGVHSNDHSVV
A general note: Calcium flux is commonly read through the fluorescence of an indicator in the cells.
For orientation: IC50 means the midpoint of a concentration-inhibition curve. As for `CC(C)c1ccccc1C1(C(=O)Nc2cccnc2OC(F)F)CC(=O)N(C)C1` (stereo not drawn) [Example 2, N-(2-(difluoromethoxy)pyridin-3-yl)-3-(2-isopropylphenyl)-1-methyl-5-oxopyrrolidine-3-carboxamide], the IC50 is 0.1 to 1 µM.

Take `CCC1(O)CC(C(=O)Nc2ccc(C)nc2OC(F)F)(c2ccccc2C(C)C)C1` (stereo not drawn) [Example 52, N-(2-(difluoromethoxy)-6-methylpyridin-3-yl)-3-ethyl-3-hydroxy-1-(2-isopropylphenyl)cyclobutane-1-carboxamide]: the IC50 is 0.01 to 0.1 µM. On the same count and under the same terms, under `COc1nc(C)ccc1NC(=O)C1(c2ccccc2C(C)C)CNC(=O)C1` (stereo not drawn) [Example 106, 3-(2-isopropylphenyl)-N-(2-methoxy-6-methylpyridin-3-yl)-5-oxopyrrolidine-3-carboxamide] stands 0.1 to 1 µM; under `Cc1ccc(NC(=O)C2(c3ccccc3C(C)C)CC(C)(O)C2)c(OC(F)F)n1` (single isomer, unassigned) [Example 51-isomer A, N-(2-(difluoromethoxy)-6-methylpyridin-3-yl)-3-hydroxy-1-(2-isopropylphenyl)-3-methylcyclobutane-1-carboxamide], 0.1 to 1 µM.

For `COc1ccc(NC(=O)[C@]2(c3ccccc3C(C)C)C[C@H](Cc3nnn[nH]3)C2)c(OC(F)F)n1` [Example 119, cis-3-((1H-tetrazol-5-yl)methyl)-N-(2-(difluoromethoxy)-6-methoxypyridin-3-yl)-1-(2-isopropylphenyl)cyclobutane-1-carboxamide], the IC50 was in the range of 0.01 to 0.1 µM. Same read-out and setting: under `COc1nc(Cl)ccc1NC(=O)C1(c2ccccc2C(C)C)COC1` [Example 28, N-(6-chloro-2-methoxypyridin-3-yl)-3-(2-isopropylphenyl)oxetane-3-carboxamide] stands over 1 µM; under `Cc1ccc(NC(=O)C2(c3ccccc3C(C)C)CC(N3CC(O)C3)C2)c(OC(F)F)n1` (stereo not drawn) [Example 42, N-(2-(difluoromethoxy)-6-methylpyridin-3-yl)-3-(3-hydroxyazetidin-1-yl)-1-(2-isopropylphenyl)cyclobutane-1-carboxamide], 0.1 to 1 µM; under `COc1cc(OC(F)F)c(NC(=O)C2(c3ccccc3C(C)C)COC2)cn1` [Example 25, N-(4-(difluoromethoxy)-6-methoxypyridin-3-yl)-3-(2-isopropylphenyl)oxetane-3-carboxamide], 0.1 to 1 µM. The same measure, in the same setting: under `Cc1ccc(NC(=O)C2(c3ccccc3C(C)C)COC2)c(OC(F)F)n1` [Example 17, N-(2-(difluoromethoxy)-6-methylpyridin-3-yl)-3-(2-isopropylphenyl)oxetane-3-carboxamide] stands 0.01 to 0.1 µM; under `COc1ccc(NC(=O)C2(c3ccccc3C(C)C)COC2)c(OC)n1` [Example 18, N-(2,6-dimethoxypyridin-3-yl)-3-(2-isopropylphenyl)oxetane-3-carboxamide], 0.1 to 1 µM; under `COc1cc(C)ccc1NC(=O)C1(c2ccccc2C(C)C)CNC(=O)C1` (stereo not drawn) [Example 101, 3-(2-isopropylphenyl)-N-(2-methoxy-4-methylphenyl)-5-oxopyrrolidine-3-carboxamide], 0.01 to 0.1 µM. Turning to `CC(=O)N1CC2(C1)CC(C(=O)Nc1ccc(C)nc1OC(F)F)(c1ccccc1C(C)C)C2` [Example 74, 2-acetyl-N-(2-(difluoromethoxy)-6-methylpyridin-3-yl)-6-(2-isopropylphenyl)-2-azaspiro[3.3]heptane-6-carboxamide], the IC50 is over 1 µM. The same measure, in the same setting: under `Cc1ccc(NC(=O)C2(c3ccccc3C(C)C)CC(C)(O)C2)c(OC(F)F)n1` (single isomer, unassigned) [Example 51-isomer B, N-(2-(difluoromethoxy)-6-methylpyridin-3-yl)-3-hydroxy-1-(2-isopropylphenyl)-3-methylcyclobutane-1-carboxamide] stands 0.1 to 1 µM; under `Cc1ccc(NC(=O)C2(c3ccccc3C(C)C)CCC2)c(OC(F)F)n1` [Example 73, N-(2-(difluoromethoxy)-6-methylpyridin-3-yl)-1-(2-isopropylphenyl)cyclobutane-1-carboxamide], over 1 µM. On the same count and under the same terms, under `COc1ccc(NC(=O)C2(c3ccccc3C(C)C)CCC(O)CC2)c(OC(F)F)n1` (mixture of isomers) [Example 81, N-(2-(difluoromethoxy)-6-methoxypyridin-3-yl)-4-hydroxy-1-(2-isopropylphenyl)cyclohexane-1-carboxamide] stands 0.01 to 0.1 µM; under `Cc1ccc(NC(=O)C2(c3ccccc3C(C)C)CC(N3CCC3)C2)c(OC(F)F)n1` (stereo not drawn) [Example 41, 3-(azetidin-1-yl)-N-(2-(difluoromethoxy)-6-methylpyridin-3-yl)-1-(2-isopropylphenyl)cyclobutane-1-carboxamide], over 1 µM.

`Cc1ccc(NC(=O)C2(c3ccccc3C(C)C)CC(F)(F)C2)c(OC(F)F)n1` [Example 61, N-(2-(difluoromethoxy)-6-methylpyridin-3-yl)-3,3-difluoro-1-(2-isopropylphenyl)cyclobutane-1-carboxamide]: the IC50 is over 1 µM.

As for `Cc1ccc(NC(=O)C2(c3ccccc3C(C)C)CC(S(N)(=O)=O)C2)c(OC(F)F)n1` (mixture of isomers) [Example 69, N-(2-(difluoromethoxy)-6-methylpyridin-3-yl)-1-(2-isopropylphenyl)-3-sulfamoylcyclobutane-1-carboxamide], the IC50 was in the range of 0.01 to 0.1 µM. Same read-out and setting: under `Cc1ccc(NC(=O)C2(c3ccccc3C(C)C)CNC(=O)C2)c(OC(F)F)c1` (stereo not drawn) [Example 109, N-(2-(difluoromethoxy)-4-methylphenyl)-3-(2-isopropylphenyl)-5-oxopyrrolidine-3-carboxamide] stands 0.01 to 0.1 µM. On the same count and under the same terms, as for `COc1ccc(NC(=O)C2(c3ccccc3C(C)C)CCC(S(C)(=O)=O)CC2)c(OC(F)F)n1` (stereo not drawn) [Example 100, N-(2-(difluoromethoxy)-6-methoxypyridin-3-yl)-1-(2-isopropylphenyl)-4-(methylsulfonyl)cyclohexane-1-carboxamide], the figure is 0.1 to 1 µM; as for `Cc1ccc(NC(=O)C2(c3ccccc3C(C)C)CC(=O)N(C)C2)c(OC(F)F)c1` (stereo not drawn) [Example 110, N-(2-(difluoromethoxy)-4-methylphenyl)-3-(2-isopropylphenyl)-1-methyl-5-oxopyrrolidine-3-carboxamide], 0.01 to 0.1 µM; as for `CC(C)c1ccccc1C1(C(=O)Nc2ccc(F)cc2OC(F)F)CC(=O)N(C)C1` (stereo not drawn) [Example 88, N-(2-(difluoromethoxy)-4-fluorophenyl)-3-(2-isopropylphenyl)-1-methyl-5-oxopyrrolidine-3-carboxamide], 0.1 to 1 µM. Same read-out and setting: under `CC(C)c1ccccc1C1(C(=O)Nc2ccc(Br)cc2OC(F)F)CNC(=O)C1` (stereo not drawn) [Example 105, N-(4-bromo-2-(difluoromethoxy)phenyl)-3-(2-isopropylphenyl)-5-oxopyrrolidine-3-carboxamide] stands 0.01 to 0.1 µM; under `COC[C@H](C)Oc1nc(OC)ccc1NC(=O)C1(c2ccccc2C(C)C)COC1` [Example 31, (S)-3-(2-isopropylphenyl)-N-(6-methoxy-2-((1-methoxypropan-2-yl)oxy)pyridin-3-yl)oxetane-3-carboxamide], 0.01 to 0.1 µM. With `Cc1ccc(NC(=O)C2(c3ccccc3C(C)C)CC(N3CCC3=O)C2)c(OC(F)F)n1` (mixture of isomers) [Example 68, N-(2-(difluoromethoxy)-6-methylpyridin-3-yl)-1-(2-isopropylphenyl)-3-(2-oxoazetidin-1-yl)cyclobutane-1-carboxamide], the IC50 lay in the range of 0.01 to 0.1 µM. On the same count and under the same terms, under `Cc1ccc(NC(=O)C2(c3ccccc3C(C)C)CC(O)C2)c(OC(F)F)n1` (stereo not drawn) [Example 58, N-(2-(difluoromethoxy)-6-methylpyridin-3-yl)-3-hydroxy-1-(2-isopropylphenyl)cyclobutane-1-carboxamide] stands 0.1 to 1 µM; under `COc1ccc(NC(=O)C2(c3ccccc3C(C)C)CCC(S(=O)(=O)N(C)C)CC2)c(OC(F)F)n1` (mixture of isomers) [Example 98, N-(2-(difluoromethoxy)-6-methoxypyridin-3-yl)-4-(N,N-dimethylsulfamoyl)-1-(2-isopropylphenyl)cyclohexane-1-carboxamide], 0.1 to 1 µM; under `CC(C)c1ccccc1C1(C(=O)Nc2ncc(Cl)cc2OC(F)F)CC(CC(=O)O)C1` (stereo not drawn) [Example 47, 2-(3-((5-chloro-3-(difluoromethoxy)pyridin-2-yl)carbamoyl)-3-(2-isopropylphenyl)cyclobutyl)acetic acid], 0.01 to 0.1 µM. Same read-out and setting: as for `Cc1ccc(NC(=O)C2(c3ccccc3C(C)C)CC(S(C)(=O)=O)C2)c(OC(F)F)n1` (stereo not drawn) [Example 71, N-(2-(difluoromethoxy)-6-methylpyridin-3-yl)-1-(2-isopropylphenyl)-3-(methylsulfonyl)cyclobutane-1-carboxamide], the figure is 0.1 to 1 µM; as for `CC(C)c1ccccc1C1(C(=O)Nc2ccc(Cl)cc2OC(F)F)CCOCC1` [Example 14, N-(4-chloro-2-(difluoromethoxy)phenyl)-4-(2-isopropylphenyl)tetrahydro-2H-pyran-4-carboxamide], 0.1 to 1 µM; as for `COc1ccc(NC(=O)C2(c3ccccc3C(C)C)CCC3(CC2)OCCO3)c(OC(F)F)n1` [Example 79, N-(2-(difluoromethoxy)-6-methoxypyridin-3-yl)-8-(2-isopropylphenyl)-1,4-dioxaspiro[4.5]decane-8-carboxamide], 0.1 to 1 µM. On the same count and under the same terms, as for `COc1ccc(NC(=O)[C@]2(c3ccccc3C(C)C)C[C@@H](CC(N)=O)C2)c(OC(F)F)n1` [Example 118, trans-3-(2-amino-2-oxoethyl)-N-(2-(difluoromethoxy)-6-methoxypyridin-3-yl)-1-(2-isopropylphenyl)cyclobutane-1-carboxamide], the figure is 0.01 to 0.1 µM.

The experiment is the same for the next values; noted with them: LPA1 IC50, B103 cells stably expressing human LPA1; Fluo-4 NW calcium flux after lysophosphatidic acid (18:1) at EC80; compounds 100 pM to 10 μM.
For the compound `COc1ccc(NC(=O)C2(c3ccccc3C(C)C)CCNC(=O)C2)c(OC(F)F)n1` (stereo not drawn) [Example 116, N-(2-(difluoromethoxy)-6-methoxypyridin-3-yl)-4-(2-isopropylphenyl)-2-oxopiperidine-4-carboxamide], the IC50 was 0.1 to 1 µM.
